Test [1] has as its system collagenase I promoter. In words: Experiment 1: collagenase I promoter (-73/+63)-luciferase in CV1 cells transfected with pSG5ARF (androgen receptor). The note with it: for % control (AR): Blank = 100. Type of test: cell-based, African Green Monkey. An excerpt:
(§1) Two plasmid constructs were introduced by standard calcium phosphate precipitation of DNA followed by glycerol shock (Ausubel F M, Brent R, Kingston D D, Moore J G et al Current protocols in molecular biology 1994 Greene Publishing Associates/Wiley-Interscience, New York, N.Y.) using a transformed African Green Monkey kidney cell line (CV1) (Schneikert J, Peterziel H, Defossez P-A, Klocker H, de Launoit Y and Cato A C B Androgen receptor-Ets protein interaction is a novel mechanism for steroid hormone-mediated down-modulation of matrix metalloproteinase expression, Journal of Biological Chemistry. Vol 271(39) (pp 23907-23913), 1996).
(§2) Accordingly, the following two plasmids were included into CV1 cells described above — • (a) Either of GR1 or pSG5ARF containing glucocorticoid or androgen receptor (AR) respectively, both at 2 ug per 5×10^5 cells, driven by the Rous sarcoma virus promoter, and • (b) a plasmid containing the −73/+63 portion of the collagenase I promoter linked to luciferase gene at 8 ug per 5×10^5 cells.
(§3) CPII was compound II above, clobuzarit.

For test [2], the system named is collagenase I promoter. As to the kind of experiment: Experiment 1: collagenase I promoter (-73/+63)-luciferase in CV1 cells transfected with GR1 (glucocorticoid receptor). It counts as cell-based, African Green Monkey. The note with it: for % control (GR1): Blank = 100.
Description: as §1, §2, §3

Test [3] relates to NFκB. As to the kind of experiment: Experiment 3: NFκB-driven 3-EnhTK-Luc reporter in CV1 cells with GR1. It counts as cell-based, African Green Monkey.
Description: as §1
This experiment was intended to show the effect of compounds I on a mediator of the immune response, nuclear factor—κB (NF-κB).
The following two plasmids were included into CV1 cells described above— • (a) GR1 as described above at 2 ug per 5×10^5 cells, and • (b) a plasmid designated 3-EnhTK-Luc (at 0.5 ug per 5×10^5 cells) which contains a transcription site that is activated by NFκB.
The blank represented the inclusion of these two plasmids alone; the relatively high value was caused by (i) the high level of serum in the culture, and (ii) the associated stress that the cells underwent during the […]—both of which upregulate NFκB. There was also a related relatively low activation of TNF (at 4 ng/ml) above a serum containing blank in the experiment. TNF was tumour necrosis factor alpha.

Test [4] relates to collagenase I promoter. In words: Experiment 1: collagenase I promoter (-73/+63)-luciferase in CV1 cells, no receptor plasmid (Empty). Type of test: cell-based, African Green Monkey. The note with it: no receptor, substance added alone.
Description: as §1, §2, §3

Test [5] deals with collagenase (MMP-1) promoter. As to the kind of experiment: Experiment 4.1: collagenase (MMP-1) promoter (-517/+63)-luciferase in MCF-7 cells, endogenous thyroid hormone receptors. Type of test: cell-based, human. The note with it: MCF-7, endogenous thyroid hormone receptors, substance added alone. As to the method:
(§4) These experiments were intended to identify the receptor through which compounds I might be acting to block collagenase promoter activity.
(§5) Transfection procedure hereinbefore described with CV1 cells was repeated using MCF-7 mammary breast cancer cells derived from pleural effusion from a breast cancer patient. Additionally, each experiment included transfection of a plasmid (at 8 ug per 5×10^5 cells) containing the −517/+63 section of the collagenase (MMP-1) promoter linked to the luciferase gene. TPA was used as above to stimulate activity of the collagenase promoter resulting in luciferase production. Compound II or 3,3,5-triiodo-L-thyronine (T3) was included (both at 10^−8M), the latter being a known ligand for the thyroid hormone receptor.
Experiment 4.1. As MCF-7 cells express endogenous thyroid hormone receptors, only the collagenase promoter plasmid (at 8 ug per 5×10^5 cells) was transfected into the MCF-7 cells.

The subject of test [6] is collagenase (MMP-1) promoter. In words: Experiment 4.2: collagenase (MMP-1) promoter-luciferase in MCF-7 cells with antisense construct for the thyroid receptor. Type of test: cell-based, human. The note with it: MCF-7 + thyroid receptor antisense, substance added alone. As to the method: as §4, §5
Experiment 4.2. The procedure of Experiment 4.1 was repeated except that a second plasmid, containing 662 bp antisense construct for the thyroid receptor (at 8 ug per 5×10^5 cells) was additionally transfected.

For test [7], the system named is collagenase (MMP-1) promoter. As to the kind of experiment: Experiment 4.3: collagenase (MMP-1) promoter-luciferase in MCF-7 cells with transfected chick thyroid hormone receptor. It counts as cell-based, human. The note with it: MCF-7 + chick thyroid hormone receptor, substance added alone. As to the method: as §4, §5
The mark [8] stands for this setting: substance added with TPA 75 ng/ml, DHT 10^-7M.
Setting [9] is: substance added with TPA 75 ng/ml, Dex 10^-7M.
Setting [10] is: substance added alone, TPA 75 ng/ml.

As for `C[C@]12CCC(=O)C[C@@H]1CC[C@@H]1[C@@H]2CC[C@]2(C)[C@@H](O)CC[C@@H]12` [DHT, dihydroxytestosterone, reference compound], in test [1] (setting [8]), the “Raw counts (AR)” value turned out to be 3711 counts and the “% control (AR)” value is recorded as 139%. Moreover, the “collagenase I activation, in words (AR)” value in test [1] (TPA-stimulated, androgen receptor) was “able to down regulate this activation”.
Consider `C[C@@H]1C[C@H]2[C@@H]3CCC4=CC(=O)C=C[C@]4(C)[C@@]3(F)[C@@H](O)C[C@]2(C)[C@@]1(O)C(=O)CO` [Dex, dexamethazone, reference compound], for which, in test [2] (setting [9]), the “Raw counts (GR1)” value is on record as 10981 counts and the “% control (GR1)” value turned out to be 86%. Besides, the “collagenase I activation, in words (GR1)” value in test [2] (TPA-stimulated, glucocorticoid receptor) is recorded as “able to down regulate this activation”. In test [3] (substance added with TNF 4 ng/ml), this compound had a Raw Counts of 18525 counts. Besides, the “% Control” value in test [3] (substance added with TNF 4 ng/ml, Blank = 100) is on record as 31%. In test [3] (with TNF), the “inhibitory effect on NFκB transcription, in words” value was “marked effect”.
`CCCCCCCCCCCCCC(=O)O[C@@H]1[C@@H](C)[C@@]2(O)[C@@H](C=C(CO)C[C@]3(O)C(=O)C(C)=C[C@@H]23)[C@@H]2C(C)(C)[C@]12OC(C)=O` [TPA, 12-O—tetradecanoylphorbol-13-acetate, reference compound]: the “Raw counts (Empty)” value in test [4] (luciferase, TPA 75 ng/ml) is given as 5407 counts. Further, the “% control (Empty)” value in test [4] (Blank = 100) stood at 225%. In addition, in test [2] (substance added alone), the “% control (GR1)” value is on record as 448%. In addition, the “Raw counts (GR1)” value in test [2] (setting [10]) was determined as 57519 counts. In addition, the “% control (AR)” value in test [1] (substance added alone) is recorded as 436%. In test [1] (setting [10]), the “Raw counts (AR)” value is on record as 11639 counts. Besides, the “% Control” value is recorded as 1174.3% in test [5] (Blank = 100), 341.2% in test [6] (Blank = 100) and 528% in test [7] (Blank = 100). Also, the “Raw Counts” value in test [5] (CPII 10^-8M) came out at 147665 counts; in test [6] (CPII 10^-8M), 4975 counts; in test [7] (CPII 10^-8M), 11528 counts.
